The subject of assay [1] is LPS-induced TNFα in monocytes. In words: Monocytes assay: LPS-triggered TNFα (ELISA). The class given is cell-based, human. The settings on record: Homo sapiens, Monocyte, 4 h, LPS 200 ng/mL, supernatant after 4 h. Summed up: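 Supernatant TNFα was quantified by luminol-based sandwich ELISA after 4 h stimulation with LPS (200 ng/mL final). The cells were CD14-bead-purified monocytes from human PBMCs, 100 000 per well, exposed to 3-fold compound dilutions for 1 h at 37° C beforehand, with DMSO at 0.2%. Results are reported as percent inhibition.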
In general terms: In an ELISA, binding on a coated surface is turned into a signal by an enzyme label.

For assay [2], the system named is LPS triggered IL-10 secretion in monocytes. In words: Monocytes assay: LPS-triggered IL-10 (ELISA). It counts as cell-based, human. The settings on record: LPS 200 ng/mL, supernatant after 4 h, maximal fold change vs LPS only. Summed up: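 Human CD14+ monocytes, magnetically isolated from buffy-coat PBMCs, were seeded at 100 000 cells/well and preincubated with compound for 1 h at 37° C (0.2% DMSO). LPS was then added at a final 200 ng/mL for 4 h. Supernatant IL-10 was quantified by chemiluminescent sandwich ELISA against a standard curve.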

These results are taken from patent US12264156B2, “Compounds and pharmaceutical compositions thereof for the treatment of diseases” (GALAPAGOS NV, priority 2018, dated 2025).

Usually EC50 stands for the midpoint of the concentration-response curve. The low end stands for an effect from little substance, the high end for a need for much substance. With `COc1cc(-c2cnc3cc(OCC(O)CN4CCCCC4)ccn23)cc(OC(F)F)c1C(=O)NC1CC1` (stereo not drawn) [Cpd 321, N-cyclopropyl-2-(difluoromethoxy)-4-[7-[2-hydroxy-3-(1-piperidyl)propoxy]imidazo [1,2-a]pyridin-3-yl]-6-methoxy-benzamide], in assay [1], the EC50 lay in the range of 0.0001 to 0.1 µM. For the same compound, the “IL-10 FCmax median” value in assay [2] is “+++ (>4.5)”.
In the case of `COc1cc(-c2cnc3cc(OCC4(F)CN(C)C4)ccn23)cc2c1C(=O)N(CC(F)(F)F)CC2` [compound 252, 6-[7-[(3-fluoro-1-methyl-azetidin-3-yl)methoxy]imidazo[1,2-a]pyridin-3-yl]-8-methoxy-2-(2,2,2-trifluoroethyl)-3,4-dihydro isoquinolin-1-one], the EC50 in assay [1] lay in the range of 0.1 to 1 µM. For the same compound, in assay [2], the “IL-10 FCmax median” value is recorded as “+++ (>4.5)”.
`COc1cc(-c2cnc3cc(OCCCN4CCCC(O)C4)ccn23)cc(OC(F)F)c1C(=O)NC1CC1` (stereo not drawn) [compound 328, N-cyclopropyl-2-(difluoromethoxy)-4-[7-[3-(3-hydroxy-1-piperidyl)propoxy]imidazo [1,2-a]pyridin-3-yl]-6-methoxy-benzamide] yielded a half-maximal effective concentration (EC50) in assay [1] of 0.1 to 1 µM. Besides, the “IL-10 FCmax median” value in assay [2] is listed as “+++ (>4.5)”.
The matching figures for `COc1cc(-c2cnc3cc(OCCN4CCOC[C@H]4C)ccn23)cc2c1C(=O)N(CC(F)(F)F)CC2` [compound 259, 8-methoxy-6-[7-[2-[(3R)-3-methylmorpholin-4-yl]ethoxy]imidazo[1,2-a]pyridin-3-yl]-2-(2,2,2-trifluoroethyl)-3,4-dihydroisoquinolin-1-one]: 0.1 to 1 µM and “+++ (>4.5)”.
For `COc1cc(-c2cnc3cc(OCCN4CCOC[C@@H]4C)ccn23)cc2c1C(=O)N(CC(F)(F)F)CC2` [Cpd 257, 8-methoxy-6-[7-[2-[(3S)-3-methylmorpholin-4-yl]ethoxy]imidazo[1,2-a]pyridin-3-yl]-2-(2,2,2-trifluoroethyl)-3,4-dihydroisoquinolin-1-one], in assay [1], the EC50 lay in the range of 0.1 to 1 µM. In assay [2], the “IL-10 FCmax median” value is on record as “+++ (>4.5)”.
On the same counts, the results for `COc1cc(-c2cnc3cc(OCC4(C)CN(C)C4)ccn23)cc(OC(F)F)c1C(=O)NC1CC1` [compound 220, N-cyclopropyl-2-(difluoromethoxy)-4-[7-[(1,3-dimethylazetidin-3-yl)methoxy]imidazo[1,2-a]pyridin-3-yl]-6-methoxy-benzamide] are 0.1 to 1 µM and “+++ (>4.5)”.
On the same counts, the results for `COc1cc(-c2cnc3cc(OC(C)(C)CO)ccn23)cc(OC(F)F)c1C(=O)NC1CC1` [Cpd 209, N-cyclopropyl-2-(difluoromethoxy)-4-[7-(2-hydroxy-1,1-dimethyl-ethoxy)imidazo[1,2-a]pyridin-3-yl]-6-methoxy-benzamide] are 0.1 to 1 µM and “+ (≤1.5)”.
On the same counts, the results for `COc1cc(-c2cnc3cc(OCCCN4CC5(COC5)C4)ccn23)cc(OC(F)F)c1C(=O)NC1CC1` [compound 273, N-cyclopropyl-2-(difluoromethoxy)-6-methoxy-4-[7-[3-(2-oxa-6-azaspiro[3.3]heptan-6-yl)propoxy]imidazo[1,2-a]pyridin-3-yl]benzamide] are 0.1 to 1 µM and “++ (>1.5-4.5)”.
`COc1cc(-c2cnc3cc(OCCN4CCOCC4)ccn23)cc2c1C(=O)N(CC(F)F)CC2` [compound 218, 2-(2,2-difluoroethyl)-8-methoxy-6-[7-(2-morpholinoethoxy)imidazo [1,2-a]pyridin-3-yl]-3,4-dihydroisoquinolin-1-one] displayed an EC50 in assay [1] of 0.1 to 1 µM. For the same compound, in assay [2], the “IL-10 FCmax median” value is recorded as “+++ (>4.5)”.
